Data set [1] deals with NFF (neonatal foreskin fibroblasts). The experiment in a line: Cytotoxicity (MTT proliferation assay) against neonatal foreskin fibroblasts. It counts as cell-based, Human. As to the method: (§1) The normal cell line NFF (neonatal foreskin fibroblasts) was a gift from Dr. Peter Parsons (Queensland Institute of Medical Research). RK (rabbit kidney) cells were obtained from Miller Whalley (Macquarie University). Both cell lines were cultured in RPMI supplemented with 10% FCS (CSL, Australia), penicillin (100 U/ml), streptomycin ([…]), L-glutamine (2 mM) and sodium bicarbonate (1.2 g/L), and cultured at 37° C. in a humidified atmosphere of 5% CO2
(§2) IC50 values were determined for each cell line. Cells were seeded in 96-well plates at an appropriate cell density as determined from growth kinetics analysis and cultured for 5 days in the absence and presence of the test compounds. Cell proliferation was assessed after the addition of 20 μl of 3-4,5 dimethylthiazol-2,5-diphenyl tetrazolium bromide (MTT, 2.5 mg/ml in PBS, Sigma) for 3-4 hrs at 37° C. according to manufacturer's instructions. IC50 values were calculated from semi-log plots of % of control proliferation on the y-axis against log dose on the x-axis.
Background: Formazan colour is commonly taken as a measure of viable cells.

Data set [2] has as its system HTB-138. The experiment in a line: MTT proliferation assay, glioma HTB-138. Type of data set: cell-based. As to the method: (§3) An cultures were supplemented with 10% FCS (CSL, Australia), penicillin (100 U/ml), streptomycin ([…]), L-glutamine (2 mM) and sodium bicarbonate (1.2 g/L), and cultured at 37° C. in a humidified atmosphere of 5% CO2. All cell lines were purchased from ATCC (Maryland, USA) except where noted.
as §2

For data set [3], the system named is NCI-H460. Put plainly: MTT proliferation assay, NSC lung NCI-H460. The note with it: Homo sapiens; NSC Lung NCI-H460, Table 2.2. Type of data set: cell-based. The procedure: as §3, §2
For data set [4], the system named is murine macrophages (RAW 264.7) stimulated with LPS. The experiment in a line: Eicosanoid synthesis in LPS-stimulated RAW 264.7 macrophages. It counts as cell-based, mouse. The settings on record: test compound 10 μM, LPS 50 ng/ml, 16 hrs; negative = inhibition. The procedure: The mouse macrophage cell line RAW 264.7 was cultured in DMEM supplemented with foetal calf serum (FCS), 2 mM glutamine and 50 U/ml penicillin/streptomycin. Subconfluent cells were detached from the flask by gentle scraping and 24-well plates seeded at 5×10^5 cells per well and allowed to adhere for 1 hr. Cells were then treated either test compound at a concentration of 10 μM (in 0.025% DMSO) or vehicle alone, and incubated for 1 hr. LPS 50 ng/ml (LPS—Sigma-Aldrich) was then added. After incubation for 16 hrs, culture media was collected and stored at −80° C. for ecosanoid measurements using enzyme immunometric assays (PGE2 and TXB2—Cayman Chemical).

The test system of data set [5] is CCRF-CEM. Put plainly: MTT proliferation assay, leukaemia (ALL) CCRF-CEM. Type of data set: cell-based. The note with it: Homo sapiens, Table 2.2. As to the method:
as §3, §2

The test system of data set [6] is PC3. The experiment in a line: MTT proliferation assay, prostate PC3. Type of data set: cell-based. The note with it: Homo sapiens, PC-3. The procedure: as §3, §2
The subject of data set [7] is HPAC. The experiment in a line: MTT proliferation assay, pancreatic HPAC. Type of data set: cell-based. The settings on record: Homo sapiens, Table 2.2.
Data set [8] has as its system CP70. Put plainly: MTT proliferation assay, ovarian CP70. Type of data set: cell-based.
Data set [9] deals with MM200. Put plainly: MTT proliferation assay, melanoma MM200. Type of data set: cell-based.
The subject of data set [10] is HT-29. Put plainly: MTT proliferation assay, colorectal HT-29. The note with it: Homo sapiens; Colorectal HT-29, Table 2.2; read-out: IC50. It counts as cell-based. As to the method:
as §3, §2

In data set [11] the test system is MDA-MB-468. The experiment in a line: MTT proliferation assay, breast MDA-MB-468. Type of data set: cell-based. The note with it: Homo sapiens.
Data set [12] concerns NCI-H23. The experiment in a line: MTT proliferation assay, lung NCI-H23. Type of data set: cell-based. The settings on record: Homo sapiens; Lung NCI-H23, Table 2.1; read-out: cytoxicity (IC50). As to the method:
as §3, §2

Data set [13] in a line: Oral pharmacokinetics in female BALB/c mice. The settings on record: female, BALB/c, mouse, serum, 50 mg/kg; oral; read-out: t1/2. It counts as in vivo, mouse. As to the method:
Compound No. 1 labelled above was prepared as homogenous suspensions in 1% CMC (m:v, water). The formulation was delivered orally by gavage to female BALB/c mice at a dosage of 50 mg/kg. Three animals were allocated to each timepoint (15 min, 30 min, 1 hr, 4 hr and 24 hr). At each respective timepoint, animals were euthanised by cervical dislocation and blood collected. The concentration of free compound was analysed by mass spectroscopy.

Data set [14] concerns RK (rabbit kidney) cells. Put plainly: Cytotoxicity (MTT proliferation assay) against rabbit kidney cells. Type of data set: cell-based. The note with it: Oryctolagus cuniculus; rabbit kidney cells. The procedure:
as §1, §2

The mark [15] stands for this setting: Glioma HTB-138, Table 2.2, read-out: IC50.
Setting [16] is: Prostate PC3, Table 2.2, read-out: IC50.
[17] abbreviates: Ovarian CP70, Table 2.2, read-out: IC50.
The mark [18] stands for this setting: Melanoma MM200, Table 2.2, read-out: IC50.
Where [19] appears, read: Breast MDA-MB-468, Table 2.2, read-out: IC50.

Like-named read-outs stand apart in the source and are kept apart here.

The source of these data is patent publication US9381186B2, “Substituted chroman derivatives, medicaments and use in therapy” (MEI Pharma, Inc., priority 2004, dated 2016).

For orientation: IC50 means the concentration that gives 50% inhibition. Consider `N.N.[Cl][Pt][Cl]` [Cisplatin, reference compound], for which the IC50 in [1] (non-transformed neonatal foreskin fibroblasts, read-out: IC50) was determined as 9 µM; in data set [1] (text says rabbit kidney cells, values are those of the NFF line of Table 1, read-out: degree of toxicity (IC50)) it was 9.9 µM.

Turning to `Cc1ccc(C2(O)c3ccc(O)cc3OCC2c2ccc(O)cc2)cc1` (stereo not shown) [Compound 10], the IC50 in data set [2] (setting [15]) was 60.2 µM; in data set [3], 39.7 µM; in [5] it was 40.7 µM; in [6] (setting [16]) it was 37.5 ± 0.4 µM; in data set [7], 50 µM; in [8] (setting [17]), 27.5 µM. Also, the “Percentage change in PGE2 synthesis compared with vehicle” value (from here on “Percentage change in PGE2 synthesis”) in [4] was −23.1%. For the same molecule, the “Percentage change in TXB2 synthesis compared with vehicle” value (shortened to “Percentage change in TXB2 synthesis”) in data set [4] was −7.1%.

`COc1ccc(C2(O)c3ccc(O)cc3OCC2c2ccc(O)cc2)cc1` (stereo not shown) [Compound 11]: the IC50 was 86.3 µM in data set [2] (setting [15]); > 100 µM in data set [3]; 95.4 µM in data set [5]; > 100 µM in data set [6] (setting [16]); 60.4 ± 9.2 µM in data set [9] (setting [18]); > 100 µM in data set [7]. The IC50 in data set [8] (setting [17]) stood at 52.7 ± 13 µM. Besides, in data set [4], the “Percentage change in PGE2 synthesis” value is −51.0%. Moreover, the “Percentage change in TXB2 synthesis” value in [4] was −53.2%.

As to `COc1ccc(C2COc3cc(OC)ccc3C2(O)c2ccc(OC)cc2)cc1` (stereo not shown) [Compound 12], the IC50 is 47.7 µM in data set [2] (setting [15]); 49.5 ± 32 µM in data set [10]; 63.5 ± 4.6 µM in data set [11] (setting [19]); > 100 µM in data set [5]; 32.8 ± 4.7 µM in data set [6] (setting [16]); > 100 µM in data set [9] (setting [18]). Further, the results for the IC50 in data set [7] and in data set [8] (setting [17]) were 86.3 ± 67 µM and > 100 µM, respectively. Also, in [4], the “Percentage change in PGE2 synthesis” value is given as −68.3%. Also, the “Percentage change in TXB2 synthesis” value in data set [4] was −34.0%.

Consider `Oc1ccc(C2COc3cc(O)ccc3C2(O)c2ccccc2)cc1` (stereo not shown) [Compound 14], for which the 50% inhibitory concentration (IC50) was > 100 µM in [2] (setting [15]); > 100 µM in data set [3]; > 100 µM in [11] (setting [19]); 90.2 µM in data set [5]; 74 ± 4 µM in data set [6] (setting [16]); 72.8 µM in data set [9] (setting [18]). The results for the IC50 in [7] and in data set [8] (setting [17]) were > 100 µM and 61.3 µM, respectively. For the same molecule, in data set [4], the “Percentage change in PGE2 synthesis” value is recorded as −23.6%. The “Percentage change in TXB2 synthesis” value in [4] is recorded as −40.9%.

In the case of `COc1cccc(C2(O)c3ccc(O)cc3OCC2c2ccc(O)cc2)c1` (stereo not shown) [Compound 15], the IC50 in data set [2] (setting [15]) was > 100 µM; in data set [3] it was > 100 µM; in data set [5], 81.8 µM; in data set [6] (setting [16]) it was > 100 µM; in data set [7] it was > 100 µM; in [8] (setting [17]) it was 65 ± 1.9 µM. The “Percentage change in PGE2 synthesis” value in data set [4] is reported as −38.3%. Besides, the “Percentage change in TXB2 synthesis” value in data set [4] is −58.4%.

As for `COc1ccc(C2=C(c3ccc(O)cc3)COc3cc(O)ccc32)cc1` [Compound 27], the half-inhibitory concentration (IC50) in data set [2] (setting [15]) amounted to 33.7 µM; in [3] it was 31.6 ± 4.9 µM; in data set [5], 16.6 µM; in [6] (setting [16]), 28 ± 7.3 µM; in [9] (setting [18]), 14.6 µM; in data set [7], 27.6 ± 5.3 µM. Also, the IC50 in data set [8] (setting [17]) came out at 22.4 ± 0.7 µM. The “Percentage change in PGE2 synthesis” value in [4] is recorded as −84.2%. The “Percentage change in TXB2 synthesis” value in [4] is −86.1%.

In the case of `COc1ccc(C2=C(c3ccc(OC)cc3)c3ccc(OC)cc3OC2)cc1` [Compound 28], the 50% inhibitory concentration (IC50) in [2] (setting [15]) is 62.4 µM; in data set [10], 29.4 ± 4.4 µM; in [3], 41.6 µM; in data set [11] (setting [19]), 30.5 ± 4 µM; in data set [5], > 100 µM; in data set [6] (setting [16]) it was 49 ± 16 µM. In addition, the IC50 is 64 ± 74 µM in [9] (setting [18]), 50.7 ± 35 µM in [7] and 62 ± 44 µM in data set [8] (setting [17]). In [4], the “Percentage change in PGE2 synthesis” value was −85.1%. Also, in data set [4], the “Percentage change in TXB2 synthesis” value was −50.1%.

Consider `Oc1ccc(C2=C(c3ccccc3)c3ccc(O)cc3OC2)cc1` [Compound 30], for which the IC50 in data set [2] (setting [15]) is 45.7 µM; in [3], 43.5 ± 9.2 µM; in data set [11] (setting [19]), > 100 µM; in data set [5], 66.6 µM; in data set [6] (setting [16]), 45 ± 4.9 µM; in data set [9] (setting [18]) it was 33 ± 3 µM. Further, the IC50 worked out at 41 ± 5.3 µM in data set [7] and 18 µM in [8] (setting [17]). Besides, the “Percentage change in PGE2 synthesis” value in [4] is −60.7%. Also, the “Percentage change in TXB2 synthesis” value in data set [4] is −62.6%.

Turning to `COc1cccc(C2=C(c3ccc(O)cc3)COc3cc(O)ccc32)c1` [Compound 31], the half-inhibitory concentration (IC50) was 94.6 µM in [2] (setting [15]); > 100 µM in data set [10]; 76.3 µM in data set [3]; 51.5 ± 12 µM in data set [5]; 47 ± 8.4 µM in data set [6] (setting [16]); 27.2 ± 4.6 µM in data set [9] (setting [18]). Moreover, the IC50 in data set [7] stood at 34.6 µM; in data set [8] (setting [17]), 53.4 µM. The “Percentage change in PGE2 synthesis” value in [4] is −41.4%. Besides, the “Percentage change in TXB2 synthesis” value in data set [4] is on record as −48.3%.

For `COc1ccc(C2=C(c3ccc(O)cc3)COc3c2ccc(O)c3C)cc1` [Compound 32], the IC50 in data set [2] (setting [15]) is 29 ± 2 µM; in data set [10], 24.8 ± 3.9 µM; in data set [3], 39.3 ± 7.7 µM; in [11] (setting [19]), 9.2 ± 5.1 µM; in [5], 15.4 µM; in data set [6] (setting [16]), 13 ± 0.6 µM. For the same molecule, the IC50 in [9] (setting [18]) was determined as 12.6 ± 3.7 µM; in data set [7] it was 35.8 µM; in data set [8] (setting [17]), 17.7 ± 5.9 µM. Besides, the “Percentage change in PGE2 synthesis” value in data set [4] is on record as −71.1%. For the same molecule, the “Percentage change in TXB2 synthesis” value in data set [4] was −34.4%.

Consider `Oc1ccc(C2=Cc3ccc(O)cc3OC2)cc1` [Phenoxodiol, reference compound], for which the IC50 was 20.4 ± 17.5 µM in data set [2] (Glioma HTB-138, Table 2.1, read-out: cytoxicity (IC50)); 8.3 ± 6.7 µM in [12]; 8.9 ± 4.8 µM in [11] (MDA-MB-468, read-out: cytoxicity (IC50)); 9.1 ± 8 µM in [6] (Prostate PC3, Table 2.1, read-out: cytoxicity (IC50)); 6.2 ± 4.5 µM in data set [9] (read-out: cytoxicity (IC50)); > 150 µM in data set [14]. For the same molecule, the IC50 in data set [8] (read-out: cytoxicity (IC50)) was 11.1 ± 23.6 µM. In addition, the half-life in data set [13] is ~30 min.
